Assay results as given in patent US6194451A, “Matrix metalloproteinase inhibitors” (Pharmacia & Upjohn S.p.A., priority 1997, dated 2001).

Tests used:
[1] = target: T1, MMP-3 (human stromelysin-1) (Homo sapiens, UniProt P08254); assay: Biochemical Assay (Protocol A): inhibition of human stromelysin-1, fluorimetric peptide substrate; conditions: MMP-3, pH 7.4, 37° C.
T1 construct: host or cells: E. coli or baculovirus-infected Sf9 insect cells
Source text: (§1) As mentioned above, although low molecular weight MMP inhibitors, including hydroxamates of general formula (A), are already known, there is a strong need for better and diversified molecules for their use in medicine, that is in particular in the control or prevention of degenerative joint diseases such as rheumatoid arthritis and osteoarthritis, or in the management of multiple sclerosis, or in the treatment of invasive tumors. […] For example, the following protocol was used to assess the biochemical activity of compounds of formula (I) against MMP-1, MMP-2, and MMP-3 (respectively, human interstitial collagenase, gelatinase A, and stromelysin-1).
(§2) Human gelatinase-A (MMP-2) was obtained as pro-enzyme (72 kDa) and was activated with 1 mM 4-aminophenylmercuric acetate for 30 min at 37° C. immediately prior to use. Human stromelysin-1 (MMP-3) was obtained as a recombinant pro-enzyme isolated either from E. coli or from baculovirus infected Sf9 insect cells and activated either by heat (1 h, 55° C.) or by 5 mg/l trypsin (30 min, 37° C.) before addition of soybean trypsin inhibitor, finally removed by centrifugation.
(§3) All enzyme assays to determine values of the enzyme-inhibitor dissociation constants were performed using the peptide substrate (7-methoxycoumarin-4-yl)Acetyl-Pro-Leu-Gly-Leu-(3-[2,4-dinitrophenyl]-L-2,3-diaminopropionyl)-Ala-Arg-NH2 (Mca-Pro-Leu-Gly-Leu-Dpa-Ala-Arg--NH2) (C. G. Knight et al., FEBS Lett. 296:263-266, 1992). The enzymes cleave at the Gly-Leu bond removing the internally quenching Dpa group. The release of the highly fluorescent peptide Mca-Pro-Leu was followed fluorimetrically setting the excitation wavelength at 326 nm (bandwidth 5 nm) and the emission at 392 nm (bandwidth 20 nm).
(§4) Continuous fluorescence assay was carried out using a Perkin Elmer LS-50 Fluorescence Spectrophotometer fitted with a thermostatted four position stirring cell changer. Inhibitors were dissolved in the assay buffer ([…] Tris/HCl pH 7.4 containing 0.15 M NaCl, 10 mM CaCl2, 0.01 mM ZnCl2 and 0.05% Brij 35) thermostatted at 37° C. The reaction was started by the addition of substrate ([…]), followed by the addition of the enzyme (e.g. 1.0 nM collagenase, 0.04 nM gelatinase, or 3.0 nM stromelysin) and the increase in fluorescence was monitored over 30 min. The run was repeated at different concentrations of inhibitors in the range 0.1-10000 nM and data at inhibitor concentration in the region if their enzyme-inhibitor dissociation constants were used for calculation.
(§5) Substrate consumption was within 5% of the initial concentration and data outside this range were discarded. The Michaelis constants (Km) for the enzyme-substrate complexes is […] or greater (C. G. Knight et al., reference above), so that the factor (1+S/Km) can be approximated to unity without appreciable error.

[2] = target: T2, MMP-1 (human interstitial collagenase) (Homo sapiens, UniProt P03956); assay: Biochemical Assay (Protocol A): inhibition of human collagenase, fluorimetric peptide substrate; conditions: MMP-1, pH 7.4, 37° C.
T2 construct: truncated recombinant enzyme encompassing residues 101-269
T2 sequence (P03956 101-269): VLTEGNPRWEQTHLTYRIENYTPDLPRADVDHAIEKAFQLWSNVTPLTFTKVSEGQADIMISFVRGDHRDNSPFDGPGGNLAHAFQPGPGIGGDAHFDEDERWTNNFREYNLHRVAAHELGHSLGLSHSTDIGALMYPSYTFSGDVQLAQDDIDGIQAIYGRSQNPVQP
Source text: as §1, §2, §3, §4, §5

[3] = system: Human DU145 Prostatic Carcinoma cells; assay: Antitumor Efficacy Assay (Protocol D): DU145 tumor growth inhibition in Balb nu/nu mice; type: in vivo, human tumor in Balb nu/nu mice; conditions: 100 mg/kg b.i.d., i.p., day +1 to day +20; p<0.01, Dunnett method
Source text: The novel compounds of formula (I) can be used in a method of treatment of the human or animal body by therapy. The condition of a human or animal patient may thus be improved. In particular, compounds the present invention can be used to limit the local growth of established tumors, and to limit growth of secondary metastases. The following protocol was used to evaluate the antitumoral efficacy in vivo of the compounds of the present invention:
Human DU145 Prostatic Carcinoma cells (2×10^6) were injected subcutaneously at day 0 in Balb nu/nu mice. Treatment with inhibitor (i.p. injection) started at day +1 and terminated at day +20. Animal were sacrificed at day +21, and the tumors exised and weighted. Percent tumor growth inhibition vs. control mice (% TGI) was calculated as follows:
% TGI=100-(Mean Tumor Weight in treated group)/(Mean Tumor Weight in […]

[4] = Pharmacokinetic Assay (Protocol C): plasma levels after i.v. and oral administration to rats; type: in vivo, rat (male Sprague-Dawley); conditions: 15 mg/kg
Description: Male rats (Sprague-Dawley; body weight about 250-300 g) were acclimatized for about one week before the start of the study. […] Before treatment, rats were overnight fasted. For each compound to be assessed, three rats were treated intravenously (injection in the tail vein as a bolus) with a single dose of 15 mg/kg (as free base or free acid if needed) body weight. Other three rats were treated orally (single bolus dose by gastric gavage) with 15 mg/kg of the same compound. In same cases, according to the detection limit of each particular compound, and its availability in stock, these standard doses were modified as needed.
Blood samples were collected into syringes especially prepared for use with the cannulated animals via the SCV cannula. Under standard conditions, blood samples (0.2 mL) were transferred into heparinized tubes at the following times: 0 (pre-dose), 2, 4, 8, 16, 30, 45, 60, 90 min, 2, 4, 6, 8 and 24 h after iv administration; 0 (pre-dose), 5, 10, 30, 45, 60, 90 min, 2, 4, 6, 8, and 24 h after oral administration. Plasma was obtained immediately by centrifugation (about 10,000 rpm for 3 min) and stored at -80° C. till analysis. Plasma samples were assayed for parent drug concentrations using an appropriate analytical method. Under standard conditions, liquid chromatography--tandem mass spectrometry (LC/MS-MS) was used.
Non-compartmental pharmacokinetic calculations were performed with the aid of Pharm-NCA package (SIMED, France). Maximum plasma concentration, Cmax, and the corresponding time, tmax, were read as the coordinates of the highest raw-data point for individual plasma profiles. Terminal phase was evaluated by graphic judgement by eye; terminal rate constant, was calculated as the slope of the terminal linear portion of natural log-transformed plasma concentrations vs. time curve, obtained using linear regression. Terminal half-life, t1/2,z, was calculated as ln(2)/lz. The area under the plasma concentration-time curve was estimated by the linear trapezoidal rule up to the last measured concentration (AUC(0-tz)) and extrapolated to infinity assuming monoexponential decay, using the formula AUC=AUC(0-tz)+C(tz)/lz, where C(tz) is the measured concentration of the last point with detectable concentration. Following iv dosing, systemic clearance was obtained using the formula Cl=Dose/AUC. According to Protocol C, the pharmacokinetic in rats of some representative compounds within the present invention was evaluated. Significant pharmacokinetic data obtained in rats at a 15 mg/kg dose were as follows: […]

[5] = target: T3, MMP-2 (human gelatinase A) (Homo sapiens, UniProt P08253); assay: Biochemical Assay (Protocol A): inhibition of human gelatinase A, fluorimetric peptide substrate; conditions: MMP-2, pH 7.4, 37° C.
T3 sequence (P08253 110-660): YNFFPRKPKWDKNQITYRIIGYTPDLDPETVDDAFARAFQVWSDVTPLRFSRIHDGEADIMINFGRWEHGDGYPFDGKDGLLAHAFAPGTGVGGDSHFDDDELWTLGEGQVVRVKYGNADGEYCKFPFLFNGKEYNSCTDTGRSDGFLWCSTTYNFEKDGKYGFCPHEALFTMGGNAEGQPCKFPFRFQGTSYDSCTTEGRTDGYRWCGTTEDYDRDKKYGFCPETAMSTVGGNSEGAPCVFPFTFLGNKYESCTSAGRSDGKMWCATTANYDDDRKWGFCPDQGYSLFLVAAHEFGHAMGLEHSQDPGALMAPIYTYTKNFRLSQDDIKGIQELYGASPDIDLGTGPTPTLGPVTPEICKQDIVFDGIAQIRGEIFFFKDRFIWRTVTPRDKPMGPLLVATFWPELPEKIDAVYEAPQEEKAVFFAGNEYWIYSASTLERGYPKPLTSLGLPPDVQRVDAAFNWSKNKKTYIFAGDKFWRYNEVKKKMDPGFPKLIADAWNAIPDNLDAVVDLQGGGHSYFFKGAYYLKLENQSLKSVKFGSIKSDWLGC
Source text: as §1, §2, §3, §4, §5

T1 sequence (P08254 100-477): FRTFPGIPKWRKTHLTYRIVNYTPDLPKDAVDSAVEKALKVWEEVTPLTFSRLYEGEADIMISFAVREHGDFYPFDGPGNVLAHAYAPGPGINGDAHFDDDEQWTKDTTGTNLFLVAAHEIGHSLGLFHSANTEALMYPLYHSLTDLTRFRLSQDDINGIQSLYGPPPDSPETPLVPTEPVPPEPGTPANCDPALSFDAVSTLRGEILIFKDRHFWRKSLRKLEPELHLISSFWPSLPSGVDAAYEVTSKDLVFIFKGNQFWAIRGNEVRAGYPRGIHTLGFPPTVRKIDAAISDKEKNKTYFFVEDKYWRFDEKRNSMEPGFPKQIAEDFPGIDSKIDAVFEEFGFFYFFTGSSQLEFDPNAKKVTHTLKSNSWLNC

Ki [1]: 23 nM
Ki [2]: 1.5 nM
AUC iv ([4]; iv): 1.35 mg·min/mL
half-life ([4]; rat, plasma, terminal half-life, read-out: t1/2,z (converted)): 2.3 h
clearance ([4]; rat, plasma, iv): 11 mL/min/kg
AUC ([4]; rat, plasma, oral): 1330 ng·h/mL
Ki [5]: 3.2 nM
SMILES: CNC(=O)[C@@H](NC(=O)[C@H](CC(C)C)[C@](O)(COC(=O)NC1CCCCC1)C(=O)NO)C(C)(C)C [Example 16, [(2R,3S)-3-(N-Cyclohexylaminocarbonyl)oxymethyl-3-hydroxy-4-hydroxyamino-2-isobutylsuccinyl]-L-tert-leucine-N-methylamide]
TGI (percent tumor growth inhibition vs. control) [3]: 83%
plasma clearance compared with literature hydroxamic acid MMP inhibitors ([4]; to our best knowledge): inferior to that reported for any hydroxamic acid MMP inhibitor disclosed in the literature
